One experiment addresses GSK3β (Homo sapiens, UniProt P49841). Kind of experiment: GSK3β kinase assay (Caliper LabChip, fluoresceinated peptide substrate). The class given is biochemical. Here is the method:
(§1) The kinase assay was performed in V-bottom 384-well plates. […] The reaction was incubated at room temperature for 20 hours and terminated by adding 45 μl of 35 mM EDTA to each sample. The reaction mixture was analyzed on the Caliper LabChip3000 (Caliper, Hopkinton, Mass.) by electrophoretic separation of the unphosphorylated substrate and phosphorylated product. […] Compounds were dissolved at 10 mM in dimethylsulfoxide (DMSO) and evaluated at eleven concentrations. IC50 values were derived by non-linear regression analysis.

A further experiment has as its target GSK3α (Homo sapiens, UniProt P49840). The experiment is described as follows: GSK3α kinase assay (Caliper LabChip, fluoresceinated peptide substrate). The class given is biochemical. Here is the method: as §1
For the next experiment, the system named is pTau. Kind of experiment: pTau assay (no method described). The class given is cell-based.
[1] abbreviates: first value of the cell, 250 pM enzyme, 20 uM ATP, 20 hours at room temperature, read-out: GSK3β/α (nM): GSK3β IC50.

Structures are written as SMILES. Like-named read-outs stand apart in the source and are kept apart here.

Chain of GSK3α (P49840 whole entry, species assumed): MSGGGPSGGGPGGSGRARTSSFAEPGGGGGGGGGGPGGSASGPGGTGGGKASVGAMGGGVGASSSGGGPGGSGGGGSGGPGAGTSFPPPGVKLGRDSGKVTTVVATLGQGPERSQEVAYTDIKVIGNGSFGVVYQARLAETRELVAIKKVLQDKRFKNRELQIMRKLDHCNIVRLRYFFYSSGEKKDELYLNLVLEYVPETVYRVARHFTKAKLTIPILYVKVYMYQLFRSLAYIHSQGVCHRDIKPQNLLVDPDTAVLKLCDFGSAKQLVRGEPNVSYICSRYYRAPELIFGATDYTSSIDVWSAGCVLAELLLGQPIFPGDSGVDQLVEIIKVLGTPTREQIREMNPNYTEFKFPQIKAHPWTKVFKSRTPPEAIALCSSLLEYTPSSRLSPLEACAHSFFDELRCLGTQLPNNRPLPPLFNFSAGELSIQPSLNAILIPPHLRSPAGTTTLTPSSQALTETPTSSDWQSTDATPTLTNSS
Chain of GSK3β (P49841 whole entry, species assumed): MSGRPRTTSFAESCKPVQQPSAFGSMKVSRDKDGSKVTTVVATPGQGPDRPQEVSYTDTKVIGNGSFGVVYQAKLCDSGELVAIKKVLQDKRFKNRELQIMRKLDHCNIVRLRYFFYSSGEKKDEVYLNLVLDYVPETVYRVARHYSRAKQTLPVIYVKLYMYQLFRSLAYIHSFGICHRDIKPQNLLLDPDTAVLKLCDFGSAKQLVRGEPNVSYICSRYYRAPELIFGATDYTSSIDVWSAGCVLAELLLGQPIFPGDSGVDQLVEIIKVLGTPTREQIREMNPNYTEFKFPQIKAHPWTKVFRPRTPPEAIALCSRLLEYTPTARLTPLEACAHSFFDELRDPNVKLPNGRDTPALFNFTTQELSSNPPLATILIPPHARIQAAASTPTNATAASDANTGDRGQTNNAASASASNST

Turning to `NC(=O)c1ccc(Nc2cc(C(=O)Nc3cncc(-c4ccccc4F)c3)ccn2)nc1` [Example 160, 6-((4-((5-(2-Fluorophenyl)pyridin-3-yl)carbamoyl)pyridin-2-yl)amino)nicotinamide], the IC50 on GSK3β (setting [1]) was 16 nM; against GSK3α, 7.6 nM.
As to `CC(=O)c1ccc(Nc2cc(C(=O)Nc3cncc(-c4ccccc4F)c3)ccn2)nc1` [Example 158, 2-((5-Acetylpyridin-2-yl)amino)-N-(5-(2-fluorophenyl)pyridin-3-yl)isonicotinamide], the IC50 at GSK3β (setting [1]) is 6 nM; against GSK3α, 3 nM; with pTau, 690 nM.
`COc1cccc(Nc2cc(C(=O)Nc3cncc(-c4ccccc4F)c3)ccn2)n1` [Example 139, N-(5-(2-Fluorophenyl)pyridin-3-yl)-2-((6-methoxylpyridin-2-yl)amino)isonicotinamide]: the IC50 on GSK3β (setting [1]) came out at 5.4 nM; on GSK3α, 3.2 nM; in the experiment with pTau, 1300 nM.
For the molecule `N#Cc1ccc(Nc2cc(C(=O)Nc3cncc(-c4ccccc4F)c3)ccn2)nc1` [Example 135, 2-((5-Cyanopyridin-2-yl)amino)-N-(5-(2-fluorophenyl)pyridin-3-yl)isonicotinamide], the figures for the IC50 at GSK3β (setting [1]), against GSK3α and with pTau were 3 nM, 1.7 nM and 670 nM, respectively.
Turning to `O=C(Nc1cncc(-n2ccc(C(F)(F)F)n2)c1)c1ccnc(Nc2ccc(C(F)(F)F)cn2)c1` [Example 120, N-(5-(3-(Trifluoromethyl)-1H-pyrazol-1-yl)pyridin-3-yl)-2-((5-(trifluoromethyl)pyridin-2-yl)amino)isonicotinamide], the IC50 at GSK3β (setting [1]) was 29 nM; against GSK3α, 14 nM; with pTau it was 1500 nM.
In the same order, the values of `O=C(Nc1cnccc1-c1ccc(Cl)cc1)c1ccnc(Nc2ccc(C(F)(F)F)cn2)c1` [Example 51, N-(4-(4-Cholorophenyl)pyridin-3-yl)-2-((5-(trifluoromethyl)pyridin-2-yl)amino)isonicotinamide] are 9.9 nM, 6.9 nM and 266 nM.
In the same order, the values of `CCOc1ccncc1NC(=O)c1ccnc(Nc2ccc(C(F)(F)F)cn2)c1` [Example 15, N-(4-Ethoxypyridin-3-yl)-2-((5-trifluoromethylpyridin-2-yl)amino)isonicotinamide] are 1.3 nM, 0.56 nM and 42 nM.
In the same order, the values of `O=C(Nc1cnccc1-c1ccccc1F)c1ccnc(Nc2ccc(C(F)(F)F)cn2)c1` [Example 49, N-(4-(2-Fluorophenyl)pyridin-3-yl)-2-((5-(trifluoromethyl)pyridin-2-yl)amino)isonicotinamide] are 0.65 nM, 0.32 nM and 53 nM.
Regarding `N#Cc1cnn(-c2cncc(NC(=O)c3ccnc(Nc4ccc(C(F)(F)F)cn4)c3)c2)c1` [Example 118, N-(5-(4-Cyano-1H-pyrazol-1-yl)pyridin-3-yl)-2-((5-(trifluoromethyl)pyridin-2-yl)amino)isonicotinamide], the IC50 amounted to 7.3 nM at GSK3β (setting [1]) and 360 nM in the experiment on pTau.
With `C=CCOc1ccc(-c2cnncc2NC(=O)c2ccnc(Nc3ccc(C(F)(F)F)cn3)c2)cc1` [Example 199, N-(5-(4-(Allyloxy)phenyl)pyridazin-4-yl)-2-((5-(trifluoromethyl)pyridin-2-yl)amino)isonicotinamide], the IC50 on GSK3β (setting [1]) is 8.7 nM; in the experiment with pTau, 470 nM.
In the case of `O=C(Nc1cnc(F)cc1OCC(F)(F)F)c1ccnc(Nc2ccc(C(F)(F)F)cn2)c1` [Example 69, N-(6-Fluoro-4-(2,2,2-trifluoroethoxy)pyridin-3-yl)-2-((5-(trifluoromethyl)pyridin-2-yl)amino)isonicotinamide], the IC50 at GSK3β (setting [1]) amounted to 2.6 nM; in the experiment on pTau, 165 nM.
With `COC(=O)c1cccc(Nc2cc(C(=O)Nc3cncc(-c4ccccc4F)c3)ccn2)n1` [Example 149, Methyl 6-((4-((5-(2-fluorophenyl)pyridin-3-yl)carbamoyl)pyridin-2-yl)amino)picolinate], the IC50 on GSK3β (setting [1]) was 2.7 nM; in the experiment on pTau it was 1700 nM.
On to `O=C(Nc1cnccc1-c1ccccn1)c1ccnc(Nc2ccc(C(F)(F)F)cn2)c1` [Example 43, N-([2,4′-Bipyridin]-3′-yl)-2-((5-(trifluoromethyl)pyridin-2-yl)amino)isonicotinamide], for which the IC50 at GSK3β (setting [1]) was 0.77 nM; against GSK3α it was 0.59 nM.
In the case of `CCc1nc(Nc2cc(C(=O)Nc3cncc(-c4ccccc4F)c3)ccn2)ccc1C#N` [Example 148, 2-((5-Cyano-6-ethylpyridin-2-yl)amino)-N-(5-(2-fluorophenyl)pyridin-3-yl)isonicotinamide], the IC50 on GSK3β (setting [1]) stood at 4.5 nM; in the experiment with pTau, 360 nM.
In the case of `CC(C)[S+]([O-])c1ccncc1NC(=O)c1ccnc(Nc2ccc(C(F)(F)F)cn2)c1` (stereo not shown) [Example 179, N-(4-(isopropylsulfinyl)pyridin-3-yl)-2-((5-(trifluoromethyl)pyridin-2-yl)amino)isonicotinamide], the IC50 at GSK3β (setting [1]) was determined as 4.3 nM; against GSK3α, 1.2 nM.
The molecule `Cc1cc(C2(C3CC3)OCCO2)c(NC(=O)c2ccnc(Nc3ccc(C(F)(F)F)cn3)c2)cn1` [Example 105, N-(4-(2-Cyclopropyl-1,3-dioxolan-2-yl)-6-methylpyridin-3-yl)-2-((5-(trifluoromethyl)pyridin-2-yl)amino)isonicotinamide] yielded an IC50 in the experiment with pTau of 2 nM.
With `O=C(Nc1cncc(-c2ccccc2F)c1)c1ccnc(Nc2cccc(Cl)n2)c1` [Example 150], the results for the IC50 at GSK3β (setting [1]) and in the experiment on pTau were 3.5 nM and 1100 nM, respectively.
For the molecule `COC(=O)/C=C/c1ccc(Nc2cc(C(=O)Nc3cncc(-c4ccccc4F)c3)ccn2)nc1` [Example 161], the IC50 on GSK3β (setting [1]) came out at 23 nM; against GSK3α, 8 nM.
Turning to `O=C(Nc1cnccc1C1CCCCO1)c1ccnc(Nc2ccc(C(F)(F)F)cn2)c1` (stereo not shown) [Example 41, N-(4-(Tetrahydro-2H-pyran-2-yl)pyridin-3-yl)-2-((5-(trifluoromethyl)pyridin-2-yl)amino)isonicotinamide], the IC50 on GSK3β (setting [1]) stood at 13 nM; in the experiment on pTau it was 120 nM.
On to `N#Cc1ccc(-c2cncc(NC(=O)c3ccnc(Nc4cccc(C#N)n4)c3)c2)cc1` [Example 162, N-(5-(4-Cyanophenyl)pyridin-3-yl)-2-((6-cyanopyridin-2-yl)amino)isonicotinamide], for which the IC50 on GSK3β came to 3.5 nM; against GSK3α, 2.4 nM.
Turning to `O=C(Nc1cnccc1OCC(F)(F)F)c1cc(Nc2ccc(C(F)(F)F)cn2)ncc1F` [Example 168, 5-Fluoro-N-(4-(2,2,2-trifluoroethoxy)pyridin-3-yl)-2-((5-(trifluoromethyl)pyridin-2-yl)amino)isonicotinamide], the results for the IC50 on GSK3β (setting [1]) and against GSK3α were 1.5 nM and 0.73 nM, respectively.
As for `CS(=O)(=O)c1ccncc1NC(=O)c1ccnc(Nc2ccc(C(F)(F)F)cn2)c1` [Example 181, N-(4-(Methylsulfonyl)pyridin-3-yl)-2-((5-(trifluoromethyl)pyridin-2-yl)amino)isonicotinamide], the figures for the IC50 on GSK3β (setting [1]) and at GSK3α were 1.2 nM and 0.77 nM, respectively.
In the same order, the values of `O=C(Nc1cnncc1C(=O)C1CC1)c1ccnc(Nc2ccc(C(F)(F)F)cn2)c1` [Example 202, N-(5-(Cyclopropanecarbonyl)pyridazin-4-yl)-2-((5-(trifluoromethyl)pyridin-2-yl)amino)isonicotinamide] are 2.9 nM and 1.1 nM.

The record behind these values is patent publication US9718804B2, “GSK-3 inhibitors” (BRISTOL-MYERS SQUIBB COMPANY, priority 2013, dated 2017).
